What follows are compounds tested on LAMSS (assay: Post-emergent Test III, herbicidal activity in wheat and barley). Details: post-emergence, 504 h; 35 g ai/ha; read-out: Visual Growth Reduction (%) 21 Days After Application LAMSS.
Format: in vivo
In short: (§1)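 Plants at the second to third true-leaf stage, grown in a greenhouse at about 18/17 °C with a 14 h photoperiod, were sprayed post-emergence at 187 L/ha with the high rate and ½× to 1/16× serial dilutions in an acetone/DMSO/crop-oil/surfactant carrier. Injury was rated visually at 21 d on a 0–100% scale, and GR20–GR90 were derived by probit analysis.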

| Compound | pest or weed control at 35 g/ha |
| --- | --- |
| Nc1c(F)c(-c2ccc(I)cc2)nc(C(=O)O)c1Cl [Compound 45, 4-amino-3-chloro-5-fluoro-6-(4-iodophenyl)picolinic acid] | 85 to 94% |
| COC(=O)c1nc(-c2ccc(OC(F)F)cc2)c(F)c(N)c1Cl [Compound 85] | 85 to 94% |
| COC(=O)c1nc(-c2ccc(Br)c(F)c2F)c(F)c(N)c1Cl [Compound 109, methyl 4-amino-6-(4-bromo-2,3-difluorophenyl)-3-chloro-5-fluoropicolinate] | 95 to 100% |
| COC(=O)c1nc(-c2ccc(Br)c(F)c2F)cc(N)c1Cl [Compound 114, methyl 4-amino-6-(4-bromo-2,3-difluorophenyl)-3-chloropicolinate] | 85 to 94% |

Same assay, conditions: post-emergence, 504 h; 70 g ai/ha; read-out: Visual Growth Reduction (%) 21 Days After Application LAMSS

| Compound | pest or weed control at 70 g/ha |
| --- | --- |
| Nc1c(F)c(-c2ccc(I)cc2)nc(C(=O)O)c1Cl [Compound 45, 4-amino-3-chloro-5-fluoro-6-(4-iodophenyl)picolinic acid] | 95 to 100% |
| COC(=O)c1nc(-c2ccc(OC(F)F)cc2)c(F)c(N)c1Cl [Compound 85] | 85 to 94% |
| COC(=O)c1nc(-c2ccc(Br)c(F)c2F)c(F)c(N)c1Cl [Compound 109, methyl 4-amino-6-(4-bromo-2,3-difluorophenyl)-3-chloro-5-fluoropicolinate] | 95 to 100% |
| COC(=O)c1nc(-c2ccc(Br)c(F)c2F)cc(N)c1Cl [Compound 114, methyl 4-amino-6-(4-bromo-2,3-difluorophenyl)-3-chloropicolinate] | 85 to 94% |

Same assay, conditions: post-emergence, 504 h; 140 g ai/ha; read-out: Visual Growth Reduction (%) 21 Days After Application LAMSS

| Compound | pest or weed control at 140 g/ha |
| --- | --- |
| Nc1c(F)c(-c2ccc(I)cc2)nc(C(=O)O)c1Cl [Compound 45, 4-amino-3-chloro-5-fluoro-6-(4-iodophenyl)picolinic acid] | 95 to 100% |
| COC(=O)c1nc(-c2ccc(OC(F)F)cc2)c(F)c(N)c1Cl [Compound 85] | 85 to 94% |
| COC(=O)c1nc(-c2ccc(Br)c(F)c2F)cc(N)c1Cl [Compound 114, methyl 4-amino-6-(4-bromo-2,3-difluorophenyl)-3-chloropicolinate] | 95 to 100% |

Same assay, conditions: probit analysis, dose for growth reduction of 50 percent, 21 days after application

| Compound | GR50 LAMSS |
| --- | --- |
| Nc1c(F)c(-c2ccc(I)cc2)nc(C(=O)O)c1Cl [Compound 45, 4-amino-3-chloro-5-fluoro-6-(4-iodophenyl)picolinic acid] | 1 g ai/ha |
| COC(=O)c1nc(-c2ccc(OC(F)F)cc2)c(F)c(N)c1Cl [Compound 85] | 0 g ai/ha |
| COC(=O)c1nc(-c2ccc(Br)c(F)c2F)c(F)c(N)c1Cl [Compound 109, methyl 4-amino-6-(4-bromo-2,3-difluorophenyl)-3-chloro-5-fluoropicolinate] | 1 g ai/ha |
| COC(=O)c1nc(-c2ccc(Br)c(F)c2F)cc(N)c1Cl [Compound 114, methyl 4-amino-6-(4-bromo-2,3-difluorophenyl)-3-chloropicolinate] | 1 g ai/ha |

Same assay, conditions: probit analysis, dose for growth reduction of 80 percent, 21 days after application

| Compound | GR80 LAMSS |
| --- | --- |
| Nc1c(F)c(-c2ccc(I)cc2)nc(C(=O)O)c1Cl [Compound 45, 4-amino-3-chloro-5-fluoro-6-(4-iodophenyl)picolinic acid] | 6 g ai/ha |
| COC(=O)c1nc(-c2ccc(OC(F)F)cc2)c(F)c(N)c1Cl [Compound 85] | 6 g ai/ha |
| COC(=O)c1nc(-c2ccc(Br)c(F)c2F)c(F)c(N)c1Cl [Compound 109, methyl 4-amino-6-(4-bromo-2,3-difluorophenyl)-3-chloro-5-fluoropicolinate] | 1 g ai/ha |
| COC(=O)c1nc(-c2ccc(Br)c(F)c2F)cc(N)c1Cl [Compound 114, methyl 4-amino-6-(4-bromo-2,3-difluorophenyl)-3-chloropicolinate] | 4 g ai/ha |

The compounds below were run on PAPRH: common poppy (Papaver rhoeas) in the same assay as above. Details: Papaver rhoeas, post-emergence, 504 h; 35 g ai/ha; read-out: Visual Growth Reduction (%) 21 Days After Application PAPRH.
Format: in vivo
In short: as §1

| Compound | pest or weed control at 35 g/ha |
| --- | --- |
| Nc1c(F)c(-c2ccc(I)cc2)nc(C(=O)O)c1Cl [Compound 45, 4-amino-3-chloro-5-fluoro-6-(4-iodophenyl)picolinic acid] | 95 to 100% |
| COC(=O)c1nc(-c2ccc(OC(F)F)cc2)c(F)c(N)c1Cl [Compound 85] | 85 to 94% |
| COC(=O)c1nc(-c2ccc(Br)c(F)c2F)cc(N)c1Cl [Compound 114, methyl 4-amino-6-(4-bromo-2,3-difluorophenyl)-3-chloropicolinate] | 95 to 100% |

Same assay, conditions: Papaver rhoeas, post-emergence, 504 h; 70 g ai/ha; read-out: Visual Growth Reduction (%) 21 Days After Application PAPRH

| Compound | pest or weed control at 70 g/ha |
| --- | --- |
| Nc1c(F)c(-c2ccc(I)cc2)nc(C(=O)O)c1Cl [Compound 45, 4-amino-3-chloro-5-fluoro-6-(4-iodophenyl)picolinic acid] | 95 to 100% |
| COC(=O)c1nc(-c2ccc(OC(F)F)cc2)c(F)c(N)c1Cl [Compound 85] | 95 to 100% |
| COC(=O)c1nc(-c2ccc(Br)c(F)c2F)cc(N)c1Cl [Compound 114, methyl 4-amino-6-(4-bromo-2,3-difluorophenyl)-3-chloropicolinate] | 95 to 100% |

Same assay, conditions: Papaver rhoeas, post-emergence, 504 h; 140 g ai/ha; read-out: Visual Growth Reduction (%) 21 Days After Application PAPRH

| Compound | pest or weed control at 140 g/ha |
| --- | --- |
| Nc1c(F)c(-c2ccc(I)cc2)nc(C(=O)O)c1Cl [Compound 45, 4-amino-3-chloro-5-fluoro-6-(4-iodophenyl)picolinic acid] | 95 to 100% |
| COC(=O)c1nc(-c2ccc(OC(F)F)cc2)c(F)c(N)c1Cl [Compound 85] | 95 to 100% |
| COC(=O)c1nc(-c2ccc(Br)c(F)c2F)cc(N)c1Cl [Compound 114, methyl 4-amino-6-(4-bromo-2,3-difluorophenyl)-3-chloropicolinate] | 95 to 100% |

Same assay, conditions: probit analysis, dose for growth reduction of 50 percent, 21 days after application

| Compound | GR50 PAPRH |
| --- | --- |
| Nc1c(F)c(-c2ccc(I)cc2)nc(C(=O)O)c1Cl [Compound 45, 4-amino-3-chloro-5-fluoro-6-(4-iodophenyl)picolinic acid] | 1 g ai/ha |
| COC(=O)c1nc(-c2ccc(OC(F)F)cc2)c(F)c(N)c1Cl [Compound 85] | 1 g ai/ha |
| COC(=O)c1nc(-c2ccc(Br)c(F)c2F)cc(N)c1Cl [Compound 114, methyl 4-amino-6-(4-bromo-2,3-difluorophenyl)-3-chloropicolinate] | 1 g ai/ha |

Same assay, conditions: probit analysis, dose for growth reduction of 80 percent, 21 days after application

| Compound | GR80 PAPRH |
| --- | --- |
| Nc1c(F)c(-c2ccc(I)cc2)nc(C(=O)O)c1Cl [Compound 45, 4-amino-3-chloro-5-fluoro-6-(4-iodophenyl)picolinic acid] | 1 g ai/ha |
| COC(=O)c1nc(-c2ccc(OC(F)F)cc2)c(F)c(N)c1Cl [Compound 85] | 3 g ai/ha |
| COC(=O)c1nc(-c2ccc(Br)c(F)c2F)cc(N)c1Cl [Compound 114, methyl 4-amino-6-(4-bromo-2,3-difluorophenyl)-3-chloropicolinate] | 4 g ai/ha |

The compounds below were run on ALOMY: black-grass (Alopecurus myosuroides) in the same assay as above. Details: Alopecurus myosuroides, post-emergence, 504 h; 35 g ai/ha; read-out: Visual Growth Reduction (%) 21 Days After Application ALOMY.
Format: in vivo
In short: as §1

| Compound | pest or weed control at 35 g/ha |
| --- | --- |
| Nc1c(F)c(-c2ccc(I)cc2)nc(C(=O)O)c1Cl [Compound 45, 4-amino-3-chloro-5-fluoro-6-(4-iodophenyl)picolinic acid] | 75 to 84% |
| COC(=O)c1nc(-c2ccc(OC(F)F)cc2)c(F)c(N)c1Cl [Compound 85] | 0 to 29% |
| COC(=O)c1nc(-c2ccc(Br)c(F)c2F)c(F)c(N)c1Cl [Compound 109, methyl 4-amino-6-(4-bromo-2,3-difluorophenyl)-3-chloro-5-fluoropicolinate] | 60 to 74% |
| COC(=O)c1nc(-c2ccc(Br)c(F)c2F)cc(N)c1Cl [Compound 114, methyl 4-amino-6-(4-bromo-2,3-difluorophenyl)-3-chloropicolinate] | 0 to 29% |

Same assay, conditions: Alopecurus myosuroides, post-emergence, 504 h; 70 g ai/ha; read-out: Visual Growth Reduction (%) 21 Days After Application ALOMY

| Compound | pest or weed control at 70 g/ha |
| --- | --- |
| Nc1c(F)c(-c2ccc(I)cc2)nc(C(=O)O)c1Cl [Compound 45, 4-amino-3-chloro-5-fluoro-6-(4-iodophenyl)picolinic acid] | 85 to 94% |
| COC(=O)c1nc(-c2ccc(OC(F)F)cc2)c(F)c(N)c1Cl [Compound 85] | 0 to 29% |
| COC(=O)c1nc(-c2ccc(Br)c(F)c2F)c(F)c(N)c1Cl [Compound 109, methyl 4-amino-6-(4-bromo-2,3-difluorophenyl)-3-chloro-5-fluoropicolinate] | 75 to 84% |
| COC(=O)c1nc(-c2ccc(Br)c(F)c2F)cc(N)c1Cl [Compound 114, methyl 4-amino-6-(4-bromo-2,3-difluorophenyl)-3-chloropicolinate] | 0 to 29% |

Same assay, conditions: Alopecurus myosuroides, post-emergence, 504 h; 140 g ai/ha; read-out: Visual Growth Reduction (%) 21 Days After Application ALOMY

| Compound | pest or weed control at 140 g/ha |
| --- | --- |
| Nc1c(F)c(-c2ccc(I)cc2)nc(C(=O)O)c1Cl [Compound 45, 4-amino-3-chloro-5-fluoro-6-(4-iodophenyl)picolinic acid] | 95 to 100% |
| COC(=O)c1nc(-c2ccc(OC(F)F)cc2)c(F)c(N)c1Cl [Compound 85] | 0 to 29% |
| COC(=O)c1nc(-c2ccc(Br)c(F)c2F)cc(N)c1Cl [Compound 114, methyl 4-amino-6-(4-bromo-2,3-difluorophenyl)-3-chloropicolinate] | 0 to 29% |

Same assay, conditions: probit analysis, dose for growth reduction of 50 percent, 21 days after application

| Compound | GR50 ALOMY |
| --- | --- |
| Nc1c(F)c(-c2ccc(I)cc2)nc(C(=O)O)c1Cl [Compound 45, 4-amino-3-chloro-5-fluoro-6-(4-iodophenyl)picolinic acid] | 9 g ai/ha |
| COC(=O)c1nc(-c2ccc(OC(F)F)cc2)c(F)c(N)c1Cl [Compound 85] | >140 g ai/ha |
| COC(=O)c1nc(-c2ccc(Br)c(F)c2F)c(F)c(N)c1Cl [Compound 109, methyl 4-amino-6-(4-bromo-2,3-difluorophenyl)-3-chloro-5-fluoropicolinate] | 22 g ai/ha |
| COC(=O)c1nc(-c2ccc(Br)c(F)c2F)cc(N)c1Cl [Compound 114, methyl 4-amino-6-(4-bromo-2,3-difluorophenyl)-3-chloropicolinate] | >140 g ai/ha |

Same assay, conditions: probit analysis, dose for growth reduction of 80 percent, 21 days after application

| Compound | GR80 ALOMY |
| --- | --- |
| Nc1c(F)c(-c2ccc(I)cc2)nc(C(=O)O)c1Cl [Compound 45, 4-amino-3-chloro-5-fluoro-6-(4-iodophenyl)picolinic acid] | 27 g ai/ha |
| COC(=O)c1nc(-c2ccc(OC(F)F)cc2)c(F)c(N)c1Cl [Compound 85] | >140 g ai/ha |
| COC(=O)c1nc(-c2ccc(Br)c(F)c2F)c(F)c(N)c1Cl [Compound 109, methyl 4-amino-6-(4-bromo-2,3-difluorophenyl)-3-chloro-5-fluoropicolinate] | 88 g ai/ha |
| COC(=O)c1nc(-c2ccc(Br)c(F)c2F)cc(N)c1Cl [Compound 114, methyl 4-amino-6-(4-bromo-2,3-difluorophenyl)-3-chloropicolinate] | >140 g ai/ha |

From patent US9113629B2, “4-amino-6-(4-substituted-phenyl)-picolinates and 6-amino-2-(4-substituted-phenyl)-pyrimidine-4-carboxylates and their use as herbicides” (DOW AGROSCIENCES LLC, priority 2013, dated 2015)
